Assay results: publication PMC11040934, “PI3Kγδ inhibition suppresses key disease features in a rat model of asthma” (Respiratory Research, 2024)
Each block holds one molecule with its values, some of them ahead of it.

Tests used:
[1] = system: Brown Norway rats, OVA sensitised and challenged; assay: Rat model of allergic asthma: BAL cellular inflammation; assay type: in vivo, Brown Norway rat; settings: BAL 24 hrs after OVA challenge; i.t. dosing
Method: (§1) Male, adult, Brown Norway rats were obtained from Charles River Germany at a body weight range of 250-300 g. Animals were housed in temperature controlled individually ventilated cages in groups of 4 with food and water provided ad libitum. Animals underwent acclimatisation for at least 1 week prior to experimentation. Experiments were performed in accordance with the UK Home Office guidelines for animal welfare based on the Animals (Scientific Procedures) Act of 1986 and the ARRIVE guidelines (Fig. E2).
(§2) Initially a time course study was performed, followed by a characterisation study with compound & clinical comparator. For both studies, rats were sensitised on day 0, 14 and 21 by an intraperitoneal (i.p.) injection of 4 mL/kg (1 mL/rat) of ovalbumin (OVA;100 μg/rat) in Imject™ Alum (20 mg/rat aluminium hydroxide and 20 mg/rat magnesium hydroxide) or sham sensitised (Saline [Sal] in Imject™ Alum). On day 28 rats were challenged with 1% (w/v) aerosolised OVA in isotonic saline, or sham challenged with isotonic saline (30 mins).
Following blood collection, rats underwent tracheostomy and were cannulated. Rats were lavaged and bronchoalveolar lavage (BAL) fluid was collected (2 × 3 mL RPMI, 30 secs, 70% vol. retained). Slides were prepared using 100 μL of neat BAL, centrifuged (700 rpm, 5 mins, RT, low acceleration; Cytospin 2, Shandon, Runcorn, UK). 800 μL of neat BAL was collected and centrifuged (800×g, 10 mins, 4 °C). Supernatant was collected and stored (− 80 °C), and cell pellet was resuspended (200 μL, RPMI), total leukocytes were attained using a Sysmex XP-300 automated cell counter (Sysmex Ltd., Milton Keynes, UK). Remaining BAL was centrifuged (800×g, 10 mins, 4 °C) and supernatant collected and stored (− 80 °C).
BAL cytospin slides were placed in an automated stainer (Hematek 2000, Ames. Co., USA) and stained with a Modified-Wright stain (Siemens, Germany). Differential cell counts using a light microscope were performed based on morphological criteria were performed to determine percentages of macrophages/monocytes, lymphocytes, neutrophils & eosinophils. Total numbers of each distinct cell type were determined based on total leukocyte numbers.

PI3K pathway (pAkt) = assay: Rat model of allergic asthma: lung tissue pAkt (T308), target engagement; assay type: in vivo, Brown Norway rat; settings: i.t. 1 hr before OVA challenge; AZD8154 0.02, 0.1, 0.3 mg/kg, budesonide 3 mg/kg; lung 2 hrs after challenge
Method: as §1
Initially a time course study was performed, followed by a characterisation study with compound & clinical comparator. […]
5 μL of supernatant (1:50 dilution) was taken for Bradford Assay which was run according to manufacturers’ instructions (BioRad, USA). […] Absorbance was measured using a spectrophotometer and total protein values interpolated to standard curve (595 nm; Spectromax, UK).
10 μg of protein from lung tissue extract were utilized in pAkt (T308); pSTAT3, pSTAT4 & STAT5a, b (Phospho-STAT Panel kit) MSD Assay plates (Meso Scale Delivery, USA) and run according to manufacturers’ instructions. Arbitrary electrochemiluminescence signals were read, the blank subtracted and values determined in each plate using a MSD S-Plex plate reader (Meso Scale Delivery, USA).

[2] = system: Brown Norway rats, OVA sensitised and challenged; assay: Rat model of allergic asthma: late asthmatic response (Penh, whole body plethysmography); assay type: in vivo, Brown Norway rat; settings: 1-6 hrs after OVA challenge; i.t. dosing
Method: as §1
as §2, with “On day 28 rats were challenged with 1% (w/v) aerosolised OVA in isotonic saline, or sham challenged with isotonic saline (30 mins).” left out
In both studies, 30 mins post-challenge, rats were placed unrestrained in Perspex plethysmographs connected to bias flow pumps (DSI Europe Ltd), with food and water ad libitum. 55 mins post-challenge, a five mins baseline recording was taken and the average penh and area under the curve (AUC) was recorded at 10 mins intervals for a total duration of 5 hrs and was used for analysis (DSI Europe Ltd).

[3] = Human plasma protein binding and unbound fraction in assay media; assay type: in vitro ADME
Method: (§3) PI3K δ assay: single cell suspension was obtained from the spleen of male Sprague Dawley rat; cells were cultured in RPMI containing heat-inactivated 10% FBS, pre-treated (1 hr., 37 °C, 5% CO2) with vehicle DMSO or PI3K inhibitors, followed by stimulation with AffiniPure F(ab’)2 Fragment Goat Anti-Rat IgM, μ chain specific, Jackson Immunoresearch (112–006-075) at 5 μg/mL (EC80 determined in house; 20–22 hrs). Then, cells were washed with FACS buffer (2% FBS, […]) and stained (15 mins, 4 °C) with Fc block (1:100, 550,273, BD bioscience), LIVE/DEAD Fixable Aqua Dead Cell Stain Kit (L34957, Invitrogen, 1:300), CD45R (B220)-PeCy7 (HIS24) (25–0460-82, eBioscience, 1:100), CD3-AF647 (IF4) (201,408, Biolegend, 1:100), CD86-FITC (24F) (200,305, Biolegend, 1:50). Cells were acquired on the Flow Cytometer (BD LSRFortessa™) and analysed using FlowJo 9.9 software (TreeStar). FACS gating strategy: lymphocytes (FSC-A vs SSC-A), doublets exclusion (FSC-W vs FSC-H), live cells (Aqua-530-), B cell identification CD3- B220 + % of positive B cells for CD86. IC50 values were determined in Graph Pad through a nonlinear fit on log transform data: log inhibitor vs response, variable slope, 4 parameters. Fraction unbound in in vitro assay is calculated using the following equation: fu^′=DF·fup/1+DF-1·fup where fu’ is the fraction unbound in assay media; fup is the experimentally determined fraction unbound in undiluted human plasma; DF is the dilution factor (fold difference between protein concentration in human plasma and assay media, using an albumin concentration of 600 μM (40 g/L) for undiluted plasma) Table 2.

[4] = Rat plasma protein binding, blood to plasma ratio, unbound fraction in whole blood; assay type: in vitro ADME; settings: for Rat fub: fraction unbound in 100% whole blood, fup/BP; for fraction unbound: rat
Method: (§4) Next, cells were stained with Fc block (550,273, BD bioscience, 1:100; 20 mins, RT), CD45R-B220-PeCy7 (HIS24) (25–0460-82, eBioscience, 1:100), CD43-PE (W3/13) (202,812, Biolegend, 1:100), HIS48-FITC (11–0570-82, eBioscience, 1:100), CD11b-APC (562,102, BD Bioscience, 1:100). Cells were lysed and fixed with BD FACS lysing solution (349,202, BD Biosciences; 45 mins, RT) before FACS acquisition (BD LSRFortessa™). Data were analysed using FlowJo 9.9 software (TreeStar). FACS gating strategy: lymphocytes (FSC-A vs SSC-A), doublets exclusion (FSC-W vs FSC-H), neutrophil identification B220-, HIS48hi, CD43hi, SSC-Ahi, geom. MFI for CD11b on neutrophils. IC50 values were determined in Graph Pad through a nonlinear fit on log transform data: log inhibitor vs response, variable slope, 4 parameters. Fraction unbound in diluted whole blood is calculated using the following equation: fu^′=DF·fub/1+DF-1·fub where fu’ is the fraction unbound in diluted whole blood; fub is the fraction unbound in undiluted whole blood; DF is the dilution factor. Fraction unbound in 100% whole blood (fub) is calculated as fup/BP, where fup is the experimentally determined fraction unbound in undiluted plasma and BP is the experimentally determined blood to plasma partition ratio of drug Table 1.

rat PI3Kγ = rat PI3Kγ (Rattus norvegicus, UniProt D3ZFJ0); assay: PI3K γ assay: CXCL1/CINC-1-stimulated CD11b expression on rat whole blood neutrophils (FACS); assay type: cell-based; settings: reference inhibitors, at the relevant concentration
Method: as §4, with “PI3K γ assay: whole blood from male Sprague Dawley rat was collected in heparin coated tubes and pre-treated (1 hr., 37 °C, 5% CO2) with vehicle DMSO or PI3K inhibitors followed by stimulation with Rat CXCL1/CINC-1 (515-CN-050, R&D) at 500 ng/mL (EC80 determined in house; 1 hr., RT). Next,” for “Next,”

rat PI3Kδ = target: T1, rat PI3Kδ (Rattus norvegicus, UniProt A0A8I5Y949); assay: PI3K δ assay: anti-IgM-stimulated CD86 expression on rat splenic B cells (FACS); assay type: cell-based; settings: reference inhibitors, at the relevant concentration
T1 sequence (A0A8I5Y949 1-1047): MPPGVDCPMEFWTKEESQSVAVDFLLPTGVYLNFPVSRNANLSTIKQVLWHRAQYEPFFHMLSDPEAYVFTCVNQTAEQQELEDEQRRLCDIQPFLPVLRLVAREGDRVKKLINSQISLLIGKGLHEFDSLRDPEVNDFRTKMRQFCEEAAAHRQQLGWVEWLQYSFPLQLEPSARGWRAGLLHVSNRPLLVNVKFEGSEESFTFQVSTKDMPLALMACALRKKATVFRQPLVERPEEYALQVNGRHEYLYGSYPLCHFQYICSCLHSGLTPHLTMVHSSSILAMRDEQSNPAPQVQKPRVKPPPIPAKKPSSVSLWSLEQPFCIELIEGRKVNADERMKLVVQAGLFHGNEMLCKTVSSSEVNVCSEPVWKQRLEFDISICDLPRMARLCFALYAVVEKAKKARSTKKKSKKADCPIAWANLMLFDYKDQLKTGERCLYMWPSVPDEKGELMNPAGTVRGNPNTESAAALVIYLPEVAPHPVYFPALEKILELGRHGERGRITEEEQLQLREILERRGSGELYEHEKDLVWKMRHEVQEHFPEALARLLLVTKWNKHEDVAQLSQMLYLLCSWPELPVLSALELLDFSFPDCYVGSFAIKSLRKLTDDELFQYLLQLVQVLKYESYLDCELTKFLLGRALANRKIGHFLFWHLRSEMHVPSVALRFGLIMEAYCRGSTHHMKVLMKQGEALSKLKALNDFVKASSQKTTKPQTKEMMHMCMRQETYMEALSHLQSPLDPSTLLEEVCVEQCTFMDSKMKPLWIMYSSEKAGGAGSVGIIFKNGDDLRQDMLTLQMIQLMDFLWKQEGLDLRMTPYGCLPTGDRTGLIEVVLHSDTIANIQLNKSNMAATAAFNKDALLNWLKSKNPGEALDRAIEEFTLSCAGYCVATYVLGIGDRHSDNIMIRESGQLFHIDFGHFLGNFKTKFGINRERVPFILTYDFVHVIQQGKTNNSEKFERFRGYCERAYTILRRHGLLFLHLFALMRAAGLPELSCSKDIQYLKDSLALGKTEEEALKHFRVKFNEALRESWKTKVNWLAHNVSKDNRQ
Method: as §3

asthma patients = settings: cited from earlier work

Chain of rat PI3Kγ (D3ZFJ0 1-1102): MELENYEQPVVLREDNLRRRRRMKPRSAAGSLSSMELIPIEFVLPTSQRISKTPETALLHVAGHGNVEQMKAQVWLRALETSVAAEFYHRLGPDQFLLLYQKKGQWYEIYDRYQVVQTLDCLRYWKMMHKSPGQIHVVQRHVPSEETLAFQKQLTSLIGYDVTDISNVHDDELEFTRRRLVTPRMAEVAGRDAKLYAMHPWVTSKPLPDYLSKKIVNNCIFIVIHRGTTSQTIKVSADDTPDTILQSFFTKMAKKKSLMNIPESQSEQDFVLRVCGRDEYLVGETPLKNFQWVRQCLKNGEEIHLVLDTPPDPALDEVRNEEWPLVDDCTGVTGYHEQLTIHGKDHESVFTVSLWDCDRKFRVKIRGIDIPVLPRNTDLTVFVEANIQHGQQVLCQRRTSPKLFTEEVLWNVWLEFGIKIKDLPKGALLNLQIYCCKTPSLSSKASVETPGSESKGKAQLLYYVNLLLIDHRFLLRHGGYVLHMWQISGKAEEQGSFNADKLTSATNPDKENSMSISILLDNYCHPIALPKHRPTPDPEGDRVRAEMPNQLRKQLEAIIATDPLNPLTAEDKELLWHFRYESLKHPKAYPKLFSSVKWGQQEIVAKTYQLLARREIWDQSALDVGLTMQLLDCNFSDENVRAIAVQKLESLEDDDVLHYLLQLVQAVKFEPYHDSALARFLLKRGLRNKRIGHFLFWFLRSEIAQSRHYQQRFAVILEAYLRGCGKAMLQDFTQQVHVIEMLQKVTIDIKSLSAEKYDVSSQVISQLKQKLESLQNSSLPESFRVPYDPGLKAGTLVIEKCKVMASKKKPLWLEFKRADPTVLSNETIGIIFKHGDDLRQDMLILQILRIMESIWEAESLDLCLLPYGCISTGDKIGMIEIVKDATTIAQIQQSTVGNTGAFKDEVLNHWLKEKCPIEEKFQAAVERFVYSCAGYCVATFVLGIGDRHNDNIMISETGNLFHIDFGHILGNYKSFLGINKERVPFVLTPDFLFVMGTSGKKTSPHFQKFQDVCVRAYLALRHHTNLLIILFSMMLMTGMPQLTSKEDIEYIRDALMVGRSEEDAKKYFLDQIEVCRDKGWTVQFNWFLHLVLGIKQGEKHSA

Structure (SMILES): CCCC1O[C@@H]2C[C@H]3[C@@H]4CCC5=CC(=O)C=C[C@]5(C)[C@H]4[C@@H](O)C[C@]3(C)[C@]2(C(=O)CO)O1 (some centres unmarked) [budesonide]
BAL eosinophils [1]: reversing these key features to basal levels
BAL neutrophils [1]: reversing these key features to basal levels
BAL total leukocytes [1]: reversing these key features to basal levels
lung tissue pAkt levels (PI3K pathway (pAkt)): dramatic inhibition
LAR (Penh, AUC) [2]: inhibiting the lung function change

fraction unbound ([3]; human plasma, fraction unbound, read-out: Human ppb (fu, %)): 0.021
fraction unbound ([3]; human, assay media (PI3K δ assay), fraction unbound in assay media (δ assay, RPMI 10% FBS), read-out: Fu’): 0.177
Rat B/P ratio ([4]; blood to plasma partition ratio): 0.88
Rat fub [4]: 0.050
fraction unbound ([4]; diluted whole blood (PI3K γ assay), fraction unbound in diluted whole blood, DF 1.05 (γ assay), read-out: fu’): 0.0524
fraction unbound ([4]; plasma, rat plasma, fraction unbound, read-out: Rat ppb (fu, %)): 0.044
fraction unbound ([4]; plasma, undiluted rat plasma, fraction, read-out: Rat plasma fu): 0.044
effect in PI3Kγ assay (CD11b expression) (rat PI3Kγ): had no impact on the other assay
effect in PI3Kδ assay (CD86 expression) (rat PI3Kδ): blocked their respective assay
Structure (SMILES): CC(C)N1CCN(Cc2cnc(-c3cc(-c4cccc5[nH]ccc45)cc4[nH]ncc34)o2)CC1 [GSK2269557]

Rat fub [4]: 0.200
effect in PI3Kγ assay (CD11b expression) (rat PI3Kγ): blocked their respective assay
effect in PI3Kδ assay (CD86 expression) (rat PI3Kδ): had no impact on the other assay
Structure (SMILES): CC(=O)Nc1nc(C)c(-c2cc3c(c(S(C)(=O)=O)c2)C(=O)N([C@@H](C)C2CC2)C3)s1 [AZD3458]

Structure (SMILES): C[C@H](Nc1ncnc2nc[nH]c12)c1cc2cccc(Cl)c2c(=O)n1-c1ccccc1 [duvelisib]
effect in clinical asthma trials (asthma patients; oral): beneficial effects

Structure (SMILES): CC(C)N1CCN(Cc2cnc(-c3cc(-c4cccc5[nH]ccc45)cc4[nH]ncc34)o2)CC1 [Nemarisilib]
asthma symptoms in clinical trials (asthma patients; inhaled): no improvement in asthma symptoms
cough propensity in clinical trials (asthma patients; inhaled): increase in cough propensity
